Format in all cases: cell-based, human
For data set [1], the system named is DPH1 gene. The data set is described as follows: DT + PM double resistant colony count after DPH1 gene editing (integration with inactivation). The conditions noted are these: DPH1 (gRNA length), TF eff. = 31%; for # of DT + PM resistant colonies (40,000 seeded cells): MCF7, individual samples A-D.
Description: MCF7 cells (Brooks, et al. 1973) were originally obtained from ATCC (subsequently propagated in an in-house cell bank) and maintained in RPMI 1641 medium supplemented with 10% FCS, 2 mM L-Glutamine and penicillin/streptomycin at 37° C. and 85% humidity. For transfection of plasmids harboring gene-editing modules, 3,000,000 cells were seeded in a 10 cm diameter culture dish and cultivated at 37° C. and humidified 5% CO2. 24 h after seeding, cells were transfected with 20 μg total DNA using JetPEI (Polyplus) according to the manufacturer's protocol but with an N/P ratio of 6:1. Transfection efficiency was determined after 24 h by flow cytometry (FACS Calibur, BD biosciences) of cells that were transfected with a modified eGFP expression plasmid (Zhang, et al. 1996).
CRISPR/Cas module for targeted integration contains a puromycin (PM) resistance gene expression cassette without promoter to avoid transient expression. Thus, detection of integration of recombinant sequences into the genome was detected by determining sensitivity of cells towards PM. A concentration of 500 ng/μL PM (which quantitatively eliminates wildtype MCF7 cells) was applied to select MCF7 cells with stably integrated expression cassettes. PM-resistant colonies selected with the same procedure as described above for the DT selection and visualized and quantified (between 12 and 14 days after start of selection) in the same manner as described above for toxin resistant colonies. Number of PM resistant colonies obtained with non-target guide sequences (scrambled gRNA, FIG. 1) reflect the nonspecific integration background. Increase in colonies (above nonspecific background) obtained with target-gene gRNAs which are PM-resistant but toxin sensitive reflect integration into just one target allele, leaving the other dph1 or dph2 allele unaffected. PM resistant colonies that are also DT resistant have the expression cassette integrated into at least target allele and the other allele either inactivated or inactivated accompanied by yet another integration event.
In data set [2] the test system is DPH1 gene. The data set is described as follows: DT resistant colony count after DPH1 gene editing (homozygous gene inactivation). The conditions noted are these: for # of DT resistant colonies (20,000 seeded cells) / # of DT resistant colonies (20,000 seeded cells) (unheaded second sub-column: mean): DPH1 (gRNA length), TF eff. = 31%; for # of DT resistant colonies (20,000 seeded cells): MCF7, individual samples A-D. As to the method:
(§1) MCF7 cells (Brooks, et al. 1973) were originally obtained from ATCC (subsequently propagated in an in-house cell bank) and maintained in RPMI […] medium supplemented with 10% FCS, 2 mM L-Glutamine and penicillin/streptomycin at 37° C. and 85% humidity. For transfection of plasmids harboring gene-editing modules, 3,000,000 cells were seeded in a 10 cm diameter culture dish and cultivated at 37° C. and humidified 5% CO2. 24 h after seeding, cells were transfected with 20 μg total DNA using JetPEI (Polyplus) according to the manufacturer's protocol but with an N/P ratio of 6:1. Transfection efficiency was determined after 24 h by flow cytometry (FACS Calibur, BD biosciences) of cells that were transfected with a modified eGFP expression plasmid (Zhang, et al. 1996).
(§2) Plasmids encoding CRISPR/Cas9 gene-editing entities (i.e. knock-out and integration systems) against Dph1 (gRNA target sequence: […] (SEQ ID NO: 01) derived from RefSeq: NM_001383) and Dph2 (gRNA target sequence: […] (SEQ ID NO: 02) derived from RefSeq: NM_001039589, NM_001384), and scrambled control (gRNA sequence: […] (SEQ ID NO: 03)) were obtained from OriGene. This system comprises one plasmid expressing a ˜100 nt gRNA under control of a U6 promoter as well as Cas9 nuclease under control of a CMV promoter and a Donor plasmid with a promoter-less GFP/PM expression cassette flanked by homologous arms to the target gene (Dph1 or Dph2). Additional Dph1 gRNA sequence variants of different sizes (OriGene) […]
(§3) MCF7 cells which have all chromosomal copies of DPH1 or DPH2 inactivated are resistant to diphtheria toxin (Stahl, et al. 2015). Thus, occurrence and frequency of toxin resistant cells/colonies upon CRISPR/Cas inflicted gene inactivation provides a measure for efficiency of inactivation of all gene copies. Therefore, MCF/cells were transfected as described in Example 1 with (i) a GFP expression plasmid as transfection control, (ii) the CRISPR/Cas9 Dph1 or Dph2 knock-out/integration system and (iii) knock-out/integration entities containing a scrambled gRNA to determine Cas9 independent integration frequencies. After determination of transfection efficiency, cells were seeded in 6-well plates. For quantification of homozygous knock-out events by DT 20000 cells were seeded and for quantification of integration events by PM or both events 40000 cells were seeded. RPMI medium was exchanged by RPMI medium containing DT or PM or both toxins 3 days after cell seeding. Exchange of medium was repeated every 2-3 days until all dead cells were removed from the plates and actively growing colonies could be detected via microscopic inspection. Thereafter (between day 12 and day 14 after start of toxin exposure), cells were washed 3 times with PBS and subsequently stained with ice cold methylene blue (0.2% in 50% EtOH). Methylene blue solution was subsequently removed and the plates were carefully washed under running water. Finally, cell colonies were counted under the microscope with a 5 mm grid foil.
MCF7 cells which have all chromosomal copies of DPH1 inactivated are DT resistant. Thus, occurrence and frequency of DTr colonies upon ZFN inflicted gene inactivation and/or cassette integration provides a measure for efficacy of inactivation of all gene copies. The ZFN recognition sequence ([…], cleavage site, SEQ ID NO: 10) are derived from NM_001383.3 (DPH1-wt) and were obtained from Sigma Aldrich. A PAC integration cassette for this position was obtained from OriGene. MCF7 cells were transfected as described above with (i) a GFP expression plasmid, (ii) the plasmid encoding DPH1-targeting ZFN and (iii) the DPH1-targeting PAC-integration cassette. After determination of transfection efficiency, cells were seeded in 6-well plates. For quantification of homozygous knock-out events (DTr) 20,000 cells were seeded, 40,000 cells for quantification of integration events (PMr) or double resistances. […]

The subject of data set [3] is DPH1 gene. The data set is described as follows: PM resistant colony count after DPH1 gene editing (PAC cassette integration). The following applies: for # of PM resistant colonies (40,000 seeded cells) / # of PM resistant colonies (40,000 seeded cells) (unheaded second sub-column: mean): DPH1 (gRNA length), TF eff. = 31%; for # of PM resistant colonies (40,000 seeded cells): MCF7, individual samples A-D; for integration efficacy in dependence on gRNA length: PMr colonies. Here is the method:
as §1, §2
as §3, with “For quantification of homozygous knock-out events by DT 20000 cells were seeded and for quantification of integration events by PM or both events 40000 cells were seeded.” left out
CRISPR/Cas module for targeted integration contains a puromycin (PM) resistance gene expression cassette without promoter to avoid transient expression. Thus, detection of integration of recombinant sequences into the genome was detected by determining sensitivity of cells towards PM. A concentration of […] PM (which quantitatively eliminates wildtype MCF7 cells) was applied to select MCF7 cells with stably integrated expression cassettes. PM-resistant colonies selected with the same procedure as described above for the DT selection and visualized and quantified (between 12 and 14 days after start of selection) in the same manner as described above for toxin resistant colonies. Number of PM resistant colonies obtained with non-target guide sequences (scrambled gRNA, FIG. 1) reflect the nonspecific integration background. Increase in colonies (above nonspecific background) obtained with target-gene gRNAs which are PM-resistant but toxin sensitive reflect integration into just one target allele, leaving the other dph1 or dph2 allele unaffected. […]

The mark [4] stands for this setting: listed as 16 mer Dph1 CRISPR Cas9 gRNA.
The mark [5] stands for this setting: listed as 18 mer Dph1 CRISPR Cas9 gRNA.
Setting [6] is: listed as 22 mer Dph1 CRISPR Cas9 gRNA.
Setting [7] is: listed as 24 mer Dph1 CRISPR Cas9 gRNA.

Where “and” joins values, the source holds several entries; their conditions need not be identical. Equal values may be shown once.

Consider “14 mer SpCa9 Dph1 gRNA: Dph1 gRNA sequence variant GGCCGAGACGGCCC with SpCas9 (listed as DNA, chemistry not given here)”, for which, in the data set on DPH1 gene [1], the “# of DT + PM resistant colonies (40,000 seeded cells)” value came out at 0 and the “# of DT + PM resistant colonies (40,000 seeded cells) (unheaded second sub-column: mean)” value was 0. In addition, in the data set with DPH1 gene [2], the “# of DT resistant colonies (20,000 seeded cells)” value is on record as 0 and the “# of DT resistant colonies (20,000 seeded cells) (unheaded second sub-column: mean)” value stood at 0. Also, the “DPH1 inactivation efficacy in dependence on gRNA length” value with DPH1 gene [2] (DTr colonies) is reported as “below detection levels”. Besides, in the data set with DPH1 gene [3], the “# of PM resistant colonies (40,000 seeded cells)” value is 6 and 10 and 8 and 9; the “# of PM resistant colonies (40,000 seeded cells) (unheaded second sub-column: mean)” value stood at 8; the “integration efficacy in dependence on gRNA length” value (from here on “integration efficacy in dependence”) was “not exceeding scrambled control background levels”. Further, the “# of PM resistant colonies (40,000 seeded cells)” value with DPH1 gene [3] (listed as 14 mer Dph1 CRISPR Cas9 gRNA) is 6 and 10 and 8 and 9.
As for “16 mer SpCas9 Dph1 gRNA: Dph1 gRNA sequence variant GCGGCCGAGACGGCCC with SpCas9 (chemistry not given here)”, in the data set with DPH1 gene [1], the “# of DT + PM resistant colonies (40,000 seeded cells)” value was 7 and 9 (2×) and 10; the “# of DT + PM resistant colonies (40,000 seeded cells) (unheaded second sub-column: mean)” value was 8. Moreover, the “# of DT + PM resistant colonies (40,000 seeded cells)” value with DPH1 gene [1] (setting [4]) was 7 and 9 (2×) and 10. In the data set with DPH1 gene [2], the “# of DT resistant colonies (20,000 seeded cells)” value is 275 and 298 and 292 and 271; the “# of DT resistant colonies (20,000 seeded cells) (unheaded second sub-column: mean)” value was found to be 284. Also, the “# of DT resistant colonies (20,000 seeded cells)” value in the data set with DPH1 gene [2] (setting [4]) is 275 and 298 and 292 and 271. Moreover, in the data set on DPH1 gene [3], the “# of PM resistant colonies (40,000 seeded cells)” value is 21 and 26 (2×) and 25; the “# of PM resistant colonies (40,000 seeded cells) (unheaded second sub-column: mean)” value is 25; the “integration efficacy in dependence” value was “Targeted integration clearly above background was observed”. The “# of PM resistant colonies (40,000 seeded cells)” value in the data set on DPH1 gene [3] (setting [4]) was 21 and 26 (2×) and 25.
On to “18 mer SpCas9 Dph1 gRNA: Dph1 gRNA sequence variant GGGCGGCCGAGACGGCCC with SpCas9 (chemistry not given here)”, for which, in the data set on DPH1 gene [1], the “# of DT + PM resistant colonies (40,000 seeded cells)” value was 10 and 12 and 7 and 11; the “# of DT + PM resistant colonies (40,000 seeded cells) (unheaded second sub-column: mean)” value came to 10. Also, in the data set on DPH1 gene [1] (setting [5]), the “# of DT + PM resistant colonies (40,000 seeded cells)” value was 10 and 12 and 7 and 11. Besides, in the data set with DPH1 gene [2], the “# of DT resistant colonies (20,000 seeded cells)” value was 284 and 299 and 321 and 324; the “# of DT resistant colonies (20,000 seeded cells) (unheaded second sub-column: mean)” value is 307. For the same substance, the “# of DT resistant colonies (20,000 seeded cells)” value with DPH1 gene [2] (setting [5]) is 284 and 299 and 321 and 324. In addition, in the data set with DPH1 gene [3], the “# of PM resistant colonies (40,000 seeded cells)” value was 19 and 25 and 27 and 22; the “# of PM resistant colonies (40,000 seeded cells) (unheaded second sub-column: mean)” value is recorded as 23; the “integration efficacy in dependence” value is given as “Targeted integration clearly above background was observed”. For the same substance, the “# of PM resistant colonies (40,000 seeded cells)” value in the data set with DPH1 gene [3] (setting [5]) was 19 and 25 and 27 and 22.
As to “22 mer SpCas9 Dph1 gRNA: Dph1 gRNA sequence variant AGCAGGGCGGCCGAGACGGCCC with SpCas9 (chemistry not given here)”, in the data set on DPH1 gene [1], the “# of DT + PM resistant colonies (40,000 seeded cells)” value is 6 and 5 (2×) and 4; the “# of DT + PM resistant colonies (40,000 seeded cells) (unheaded second sub-column: mean)” value stood at 5. The “# of DT + PM resistant colonies (40,000 seeded cells)” value with DPH1 gene [1] (setting [6]) is 6 and 5 (2×) and 4. Moreover, in the data set with DPH1 gene [2], the “# of DT resistant colonies (20,000 seeded cells)” value is 278 and 292 and 297 and 267; the “# of DT resistant colonies (20,000 seeded cells) (unheaded second sub-column: mean)” value was 284. In addition, the “# of DT resistant colonies (20,000 seeded cells)” value in the data set with DPH1 gene [2] (setting [6]) was 278 and 292 and 297 and 267. In the data set on DPH1 gene [3], the “# of PM resistant colonies (40,000 seeded cells)” value was 14 and 12 and 11 and 15; the “# of PM resistant colonies (40,000 seeded cells) (unheaded second sub-column: mean)” value turned out to be 13; the “integration efficacy in dependence” value was “Targeted integration clearly above background was observed”. The “# of PM resistant colonies (40,000 seeded cells)” value in the data set on DPH1 gene [3] (setting [6]) was 14 and 12 and 11 and 15.
With “24 mer SpCas9 Dph1 gRNA: Dph1 gRNA sequence variant GGAGCAGGGCGGCCGAGACGGCCC with SpCas9 (chemistry not given here)”, in the data set with DPH1 gene [1], the “# of DT + PM resistant colonies (40,000 seeded cells)” value is 2 and 4 and 3 (2×); the “# of DT + PM resistant colonies (40,000 seeded cells) (unheaded second sub-column: mean)” value is listed as 3. Moreover, in the data set with DPH1 gene [1] (setting [7]), the “# of DT + PM resistant colonies (40,000 seeded cells)” value was 2 and 4 and 3 (2×). Besides, in the data set on DPH1 gene [2], the “# of DT resistant colonies (20,000 seeded cells)” value was 237 and 252 and 228 and 211; the “# of DT resistant colonies (20,000 seeded cells) (unheaded second sub-column: mean)” value was 232. In the data set on DPH1 gene [2] (setting [7]), the “# of DT resistant colonies (20,000 seeded cells)” value is 237 and 252 and 228 and 211. Besides, in the data set on DPH1 gene [3], the “# of PM resistant colonies (40,000 seeded cells)” value is 13 and 12 and 11 and 15; the “# of PM resistant colonies (40,000 seeded cells) (unheaded second sub-column: mean)” value amounted to 13; the “integration efficacy in dependence” value is listed as “Targeted integration clearly above background was observed”. The “# of PM resistant colonies (40,000 seeded cells)” value in the data set with DPH1 gene [3] (setting [7]) is 13 and 12 and 11 and 15.

Values taken from patent US20250250559A1, “METHOD TO ANALYZE AND OPTIMIZE GENE EDITING MODULES AND DELIVERY APPROACHES” (Hoffmann-La Roche Inc., priority 2016, published 2025).
